# Tests used:
# murine MM cells = assay: In vitro viability assay, murine MM-derived cell lines; format: cell-based, mouse; conditions: 48 hours, Deep Blue Cell Viability Kit
# Method: (§1) Mice were monitored twice weekly for signs of disease and were then sacrificed. […] The samples that were able to grow for weeks ex vivo were tested for the presence of the original transgenic lesions and then characterized. Eight MM-derived cells lines established from mice carrying different lesions. In vitro therapy assays. For viability assays, murine or human MM cells were seeded in 96-well black culture plates and treated with different drugs alone or in combination for 48 hours. Cell viability was quantified using a Deep Blue Cell Viability™ Kit (Biolegend) and analyzed with a Skanit Varioskan Flash 2.4.3 (Thermo Scientific) fluorometer. Treatments were administered to cells at a density of 0.3×10^6 cells/ml, and all tests were performed in triplicate. After treatment, cells were subjected to qRT-PCR or Western blot analyses, as indicated, according to previously reported methods.
# human MM cells = assay: In vitro viability assay, human MM cell lines; format: cell-based; conditions: 48 hours, Deep Blue Cell Viability Kit
# Method: (§2) Ten cell lines derived from MM patients (RPMI8226, KMS12, KMS26, KMS11, MM1S, U266, K620, JJN3, H929, and MOLP2) were included in this study. All have been validated according to the AmpFLSTR® Identifiler®, were tested for Mycoplasma sp.
# as §1
# MYC [1] = assay: MYC expression and phosphorylation after treatment (Western blot, qRT-PCR), mouse MM cell lines; format: cell-based
# Method: (§3) A total of 1 μg of total RNA from GFP^+-sorted cells was isolated with a NucleoSpin RNA kit (Macherey-Nagel) and reverse transcribed into cDNA using MMLV enzyme technology (Invitrogen). PCR was performed on an ABI Viia7 instrument using SYBR green fluorophore and primers designed to amplify specific mouse or human genes. Specific primers are listed in the Key Resources Table.
# as §1
# MYC [2] = molecular target: T1, MYC (Homo sapiens, UniProt P01106); assay: MYC expression and phosphorylation after treatment (Western blot, qRT-PCR), human MM cell lines; format: cell-based
# T1 construct: Western blot analysis of MYC protein expression in human MM cell lines; endogenous in cells; host or cells: human MM cell lines (of RPMI8226, KMS12, KMS26, KMS11, MM1S, U266, K620, JJN3, H929, MOLP2)
# Method: as §3, §2
# as §1, with “After treatment, cells were subjected to qRT-PCR or Western blot analyses, as indicated, according to previously reported methods.” left out
# T1 sequence (P01106 whole entry): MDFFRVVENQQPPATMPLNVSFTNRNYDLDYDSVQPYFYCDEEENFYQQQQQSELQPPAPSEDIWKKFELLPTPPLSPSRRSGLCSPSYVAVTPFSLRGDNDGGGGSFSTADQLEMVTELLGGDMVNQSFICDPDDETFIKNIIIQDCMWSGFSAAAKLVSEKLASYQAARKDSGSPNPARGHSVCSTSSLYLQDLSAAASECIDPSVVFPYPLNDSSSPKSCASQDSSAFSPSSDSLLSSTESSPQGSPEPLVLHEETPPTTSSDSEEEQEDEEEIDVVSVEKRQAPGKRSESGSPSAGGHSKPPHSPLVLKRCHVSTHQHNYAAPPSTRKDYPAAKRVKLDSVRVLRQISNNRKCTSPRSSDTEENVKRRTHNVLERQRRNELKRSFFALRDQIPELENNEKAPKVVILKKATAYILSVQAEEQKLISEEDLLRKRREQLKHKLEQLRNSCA
substance,measurement,setting,value
MYCi975,MM cell viability,murine MM cells,decreased viability
same,MM cell viability,human MM cells,decreased viability
same,MYC protein expression,MYC [1],dose-dependent MYC protein reduction
same,MYC protein expression,MYC [2],dose-dependent MYC protein reduction
